Experimental data reported in patent publication US20080076827A1, “Treatment of Inflammatory Bowel Disease” (priority 2004, published 2008).

Columns and labels:
TNFα = experiment: LPS-induced TNF alpha release in mice; type: in vivo, Balb C ByJ mice; conditions: oral route, 30 min before 1 mg/kg i.p. LPS; serum 2 hours after LPS; ELISA
Experimental: 7 week-old Balb C ByJ mice (24-28 g) were administered, either by i.p. (5 ml/kg) or oral (10 ml/kg) administration, with vehicle or test article. 30 minutes later these animals were challenged with an intraperitoneal injection of 1 mg/kg LPS. 2 hours after LPS challenge, blood samples were collected under light isoflurane anaesthesia into normal tubes by retro-orbital puncture. Samples were allowed to clot at room temperature and then spun at 6000 g for 3 min at 4° C. Serum was stored at −20° C. until use. Serum TNFα and IL-10 levels were analysed in duplicate by ELISA technique.

[1] = system: dextran sulphate-induced colonic inflammation; experiment: Dextran sulphate-induced IBD model; type: in vivo, BDF1 male mice; conditions: rectal route twice a day for 5 days
Experimental: 8-10 week-old BDF1 male mice (˜30 g) were housed in normal conditions. At the start of the study, normal water was exchanged for a 2.5% dextran sulphate solution to induce colonic inflammation. Concurrently actarit and the positive control budesonide were administered rectally twice a day for 5 days. On day 6 the animals were sacrificed and the large intestine was removed. The lower two-thirds were assessed for histological severity (scoring system; 1 mild to 4 severe).

Question: For CC(=O)Nc1ccc(CC(=O)O)cc1 [actarit, 4-(acetylamino)benzeneacetic acid], which “inhibition of serum TNFalpha levels after intraperitoneal LPS administration” value (TNFα) is on record?
Answer: Its value is “dose-dependant inihibition of TNFalpha levels”.

Question: And the “pathological and histological lesions” value ([1]; 2.5% dextran sulphate in drinking water, large intestine assessed day 6)?
Answer: Its value is “can ameliorate pathological and histological lesions”.

Question: And the “gross histological scores (scoring system; 1 mild to 4 severe)” value ([1]; 2.5% dextran sulphate, compared with 0.1 mg/kg rectal budesonide)?
Answer: The value was “reduced gross histological scores induced by dextran sulphate in the drinking water of BDF1 mice, over and above the effect seen for 0.1 mg/kg rectal budesonide”.
